Test results reported in EP3498298A1, “THE USE OF SGC STIMULATORS AND SGC ACTIVATORS ALONE OR IN COMBINATION WITH PDE5 INHIBITORS FOR THE TREATMENT OF BONE DISORDERS INCLUDING OSTEOGENESIS IMPERFECTA (OI)” (Bayer AG, priority 2017, dated 2019).

Tests used:
[1] = test system: ovariectomized female mice; conditions: intraperitoneally, 10µg/kg bolus dose; cited from earlier work
[2] = test system: B6C3Fe a/a-Col1a2 oim /J (OI mice) termed as HOM; assay: 16 week chronic treatment study, micro-CT of femora (bone morphology and architecture) in OI mice; format: in vivo; conditions: 300 ppm (300mg/kg chow), 16 weeks; treated female HOM mice compared to untreated female HOM mice; P < 0.05
Source text: (§1) Preferentially mice were used, especially transgenic mice (B6C3Fe a/a-Col1a2 oim /J (Jackson Laboratories)) (Chipman et al. 1993, McBride et al. 1998). These so called OI-mice (OIM, also called HOM mice) carry a mutation in the collagen gen (Col1a2) which reflects the phenotype and clinical situation of patients with […] OI. For the treatment homozygous OIM are used and compared with WT mice which serve as control.
(§2) As read-outs were preferentially used: • semiquantitative RT/PCR (TaqMan PCR) to assess gene expression according to standard procedures • histopathology to assess bone morphology according to standard procedures • high-resolution micro-CTscanner (µCT 35; Scanco Medical AG, Briittisellen, Switzerland) to evaluate bone morphology and architecture (Micro-CT) • three-point bending test to assess mechanical properties of the femora (Mechanical testing)
(§3) A high-resolution micro-CTscanner (µCT 35; Scanco Medical AG, Briittisellen, Switzerland) was used to evaluate bone morphology and architecture. […] The trabecular and cortical parameters were determined according to the guidelines for the assessment of bone microstructure with micro-CT (Bouxsein et al., 2010). […]

wild-type mice (WT) = assay: 16 week chronic treatment study, micro-CT of femora (bone morphology and architecture) in wild-type mice; format: in vivo; conditions: 300 ppm (300mg/kg chow), 16 weeks
Source text: as §1, §2, §3

mice = conditions: cited from earlier work

Question: With `O=C(O)CCCCN(CCc1ccccc1OCc1ccc(CCc2ccccc2)cc1)Cc1ccc(C(=O)O)cc1` [cinaciguat] as the compound, how does the bone density [1] read?
Answer: Its bone density is “could increase bone density”.

Question: What does the source list for `Nc1nc(-c2nn(Cc3ccccc3F)c3ncccc23)ncc1C1CC1` [BAY 41-2272, 3-(4-amino-5-cyclopropylpyrimidin-2-yl)-1-(2-fluorobenzyl)-1H-pyrazolo[3,4-b]pyridine]?
Answer: trabecular number (Tb.N) [2]: increased; trabecular separation (Tb.Sp) [2]: decreased; structural properties of both trabecular and cortical bone (wild-type mice (WT)): no effect

Question: With `CCCc1nn(C)c2c(=O)[nH]c(-c3cc(S(=O)(=O)N4CCN(C)CC4)ccc3OCC)nc12` [sildenafil, 3-[2-ethoxy-5-(4-methylpiperazin-1-yl)sulfonyl-phenyl]-7-methy1-9-propy1-2,4,7,8-tetrazabicyclo [4.3.0]nona-3,8,10-trien-5-one] as the compound, how does the fracture healing (mice) read?
Answer: The fracture healing was “accelerates fracture healing”.
